Assay results: ChEMBL document CHEMBL1155382, “Bisleuconothine A, an eburnane-aspidosperma bisindole alkaloid from Leuconotis griffithii” (Bioorg Med Chem Lett, 2010)

Assays:
[1] = test system: HCT-116; assay: Cell cycle arrest in human HCT116 cells assessed as accumulation at G1 phase at 5 uM after 24 hrs; assay type: functional
[2] = test system: HCT-116; assay: Cell cycle arrest in human HCT116 cells assessed as accumulation at G1 phase at 20 uM after 24 hrs; assay type: functional
[3] = test system: HCT-116; assay: Inhibition of cell growth in human HCT116 cells; assay type: functional, cell-based
[4] = test system: A549; assay: Inhibition of cell growth in human A549 cells; assay type: functional, cell-based
[5] = test system: HL-60; assay: Inhibition of cell growth in human HL60 cells; assay type: functional, cell-based
[6] = test system: MCF7; assay: Inhibition of cell growth in human MCF7 cells; assay type: functional, cell-based
[7] = test system: HCT-116; assay: Cell cycle arrest in human HCT116 cells assessed as accumulation at G1 phase at 10 uM after 24 hrs; assay type: functional

Question: `CC[C@@]12CCCN3CCc4c(n(c5ccccc45)[C@H](c4ccc(O)c5c4N[C@@H]4CC[C@@]6(CC)CCCN7CC[C@@]54[C@H]76)C1)[C@H]32` [BISLEUCONOTHINE A] was tested. Which Activity [1] did it give?
Answer: The Activity was 72%.

Question: What about the Activity [2] of the same compound?
Answer: Its Activity is 79.5%.

Question: And the IC50 [3]?
Answer: The IC50 was 5.7 µM.

Question: What about the IC50 [4] of the same compound?
Answer: The IC50 was 7 µM.

Question: What about the IC50 [5] of the same compound?
Answer: Its IC50 is 11 µM.

Question: And the IC50 [6]?
Answer: Its IC50 is 9.2 µM.

Question: What about the Activity [7] of the same compound?
Answer: Its Activity is 75.1%.
